Results from patent publication US6919330B2, “Formulations of drugs” (Laxdale Limited, priority 2002, dated 2005).

Test: Plasma and red cell selenium levels in healthy controls and patient groups on drugs
Assay type: in vivo, human
Details: schizophrenic patients on the drug, compared with the other groups
From the text: Here the selenium levels are expressed in μmol/litre and are shown as means plus or minus the Standard Error of the Mean (SEM)

With CN1CCN(C2=Nc3cc(Cl)ccc3Nc3ccccc32)CC1 [clozapine] the selenium levels was “exceptionally low”.
